US8173654B2, “Triazolopyridazine compounds” (Janssen Pharmaceutica N.V., priority 2005, dated 2012)

Assays:
c-Met [1] = target: T1, c-Met (Homo sapiens, UniProt P08581); assay: Delfia autophosphorylation kinase assay on the c-Met; assay type: biochemical; set-up: The purified His6 tagged cytoplasmic domain of c-Met was diluted to a concentration of 500 ng/ml; host or cells: Sf9 insect cells (baculovirus, pFastBacHTa); conditions: His6 tagged cytoplasmic domain of c-Met, 1 μM ATP; read-out: cMet Delfia autophos IC-50
Experimental: A DELFIA time resolved fluorescence assay was developed for screening of compounds that decreases the autophosphorylation thus the kinase activity of c-Met. The DELFIA assay is non-radioactive. The autophosphorylation of the c-Met is measured by an anti-phosphotyrosine antibody coupled to an Europium tag.
A major advantage of this format is that it allowed for the development of an autophosphorylation assay using Ni-chelate plates which bind the hexa-his tag on the recombinant Met kinase. The autophosphorylation assay allows one to use a known substrate, Met kinase itself, for the phosphorylation.
The assay procedure for screening is as follows. The purified His6 tagged cytoplasmic domain of c-Met was diluted to a concentration of 500 ng/ml in enzyme dilution buffer (50 mM Tris-HCl, pH8.0, 0.1% BSA) and dispensed to assay plates at a volume of 50 μl per well. Black opaque HisGrab Nickel coated 96 well plates (Pierce, Rockford, Ill.) were selected for use. Next, 2.5 μl of compound in 40% DMSO was added to test wells, 2.5 μl of 40% DMSO only was added to the negative control wells. The autophosphorylation reaction was initiated upon the addition of 50 μl of reaction buffer, 50 mM Tris-HCl, pH 8.0, 10 mM MgCl2, 0.1 mM Na3VO4, 1 mM DTT, 1 μM ATP. Plates were incubated at room temperature for 1 hour followed by 2 washes with 200 μl/well of PBS. Europium conjugated anti-phosphotyrosine antibody, Eu-PY20 from Perkin Elmer was diluted to 50 ng/ml in Delfia AB buffer (Perkin Elmer, Boston, Mass.), added to the 96 well assay plates at a volume of 100 μl/well, and incubated at room temperature for 2 hours. Assay plates were then washed 4 times each with 200 μl/well of Delfia wash buffer (Perkin Elmer). After the final wash 150 μl of Delfia Enhancement solution (Perkin Elmer) was added to each well of the assay plate and incubated at room temperature for 1 hour. Plates were read on an LJL Analyst instrument (Molecular Devices; Sunnyvale, Calif.) with filter settings of 360 excitation, 620 emission, and 410 dichroic. IC50 values were calculated using Graphpad Prism software (Graphpad Software; San Diego, Calif.).
Target sequence in this assay (P08581 956-1390 limits assumed): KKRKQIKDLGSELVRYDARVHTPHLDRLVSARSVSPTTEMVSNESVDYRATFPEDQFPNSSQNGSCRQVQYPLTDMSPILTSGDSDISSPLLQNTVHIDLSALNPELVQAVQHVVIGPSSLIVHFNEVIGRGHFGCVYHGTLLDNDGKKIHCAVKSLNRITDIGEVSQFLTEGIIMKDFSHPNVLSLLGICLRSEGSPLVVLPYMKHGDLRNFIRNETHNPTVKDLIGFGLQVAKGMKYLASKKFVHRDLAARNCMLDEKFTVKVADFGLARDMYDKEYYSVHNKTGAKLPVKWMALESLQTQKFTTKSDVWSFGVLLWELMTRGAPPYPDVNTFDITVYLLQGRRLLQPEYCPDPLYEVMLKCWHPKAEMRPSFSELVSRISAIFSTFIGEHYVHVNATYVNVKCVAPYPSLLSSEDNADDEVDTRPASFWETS

c-Met [2] = target: T1, c-Met; assay: Cell based ELISA assay for HGF stimulated c-Met phosphorylation in S114 cells; set-up: expressed in transfected cells; host or cells: S114 (murine NIH 3T3 derived); conditions: read-out: c-Met Cell ELISA IC-50
Experimental: A cell based ELISA assay was developed to evaluate the ability of compounds to inhibit HGF stimulated c-Met phosphorylation in cells.
S114 cells were seeded to a 96 well tissue culture treated dish at a concentration of 5×10^4 per well. After a 16-20 hour incubation, culture medium was removed and replaced with serum free medium supplemented with 0.5% BSA. Test compound was then added and incubated with the cells for 60 minutes, followed by the addition of 1 μl HGF at […] for 15 minutes. […] Following another 1 hour incubation at room temperature the plates were washed three times with Delfia wash buffer (Perkin Elmer). After the final wash, […] of Delfia enhancer solution (Perkin Elmer) was added and allowed to incubate for 60 minutes. Plates were read on an LJL Analyst instrument (Molecular Devices; Sunnyvale, Calif.) with filter settings of 360 excitation, 620 emission, and 410 dichroic. IC50 values were calculated using Graphpad Prism software (Graphpad Software; San Diego, Calif.).
Target sequence in this assay (P08581 25-1390): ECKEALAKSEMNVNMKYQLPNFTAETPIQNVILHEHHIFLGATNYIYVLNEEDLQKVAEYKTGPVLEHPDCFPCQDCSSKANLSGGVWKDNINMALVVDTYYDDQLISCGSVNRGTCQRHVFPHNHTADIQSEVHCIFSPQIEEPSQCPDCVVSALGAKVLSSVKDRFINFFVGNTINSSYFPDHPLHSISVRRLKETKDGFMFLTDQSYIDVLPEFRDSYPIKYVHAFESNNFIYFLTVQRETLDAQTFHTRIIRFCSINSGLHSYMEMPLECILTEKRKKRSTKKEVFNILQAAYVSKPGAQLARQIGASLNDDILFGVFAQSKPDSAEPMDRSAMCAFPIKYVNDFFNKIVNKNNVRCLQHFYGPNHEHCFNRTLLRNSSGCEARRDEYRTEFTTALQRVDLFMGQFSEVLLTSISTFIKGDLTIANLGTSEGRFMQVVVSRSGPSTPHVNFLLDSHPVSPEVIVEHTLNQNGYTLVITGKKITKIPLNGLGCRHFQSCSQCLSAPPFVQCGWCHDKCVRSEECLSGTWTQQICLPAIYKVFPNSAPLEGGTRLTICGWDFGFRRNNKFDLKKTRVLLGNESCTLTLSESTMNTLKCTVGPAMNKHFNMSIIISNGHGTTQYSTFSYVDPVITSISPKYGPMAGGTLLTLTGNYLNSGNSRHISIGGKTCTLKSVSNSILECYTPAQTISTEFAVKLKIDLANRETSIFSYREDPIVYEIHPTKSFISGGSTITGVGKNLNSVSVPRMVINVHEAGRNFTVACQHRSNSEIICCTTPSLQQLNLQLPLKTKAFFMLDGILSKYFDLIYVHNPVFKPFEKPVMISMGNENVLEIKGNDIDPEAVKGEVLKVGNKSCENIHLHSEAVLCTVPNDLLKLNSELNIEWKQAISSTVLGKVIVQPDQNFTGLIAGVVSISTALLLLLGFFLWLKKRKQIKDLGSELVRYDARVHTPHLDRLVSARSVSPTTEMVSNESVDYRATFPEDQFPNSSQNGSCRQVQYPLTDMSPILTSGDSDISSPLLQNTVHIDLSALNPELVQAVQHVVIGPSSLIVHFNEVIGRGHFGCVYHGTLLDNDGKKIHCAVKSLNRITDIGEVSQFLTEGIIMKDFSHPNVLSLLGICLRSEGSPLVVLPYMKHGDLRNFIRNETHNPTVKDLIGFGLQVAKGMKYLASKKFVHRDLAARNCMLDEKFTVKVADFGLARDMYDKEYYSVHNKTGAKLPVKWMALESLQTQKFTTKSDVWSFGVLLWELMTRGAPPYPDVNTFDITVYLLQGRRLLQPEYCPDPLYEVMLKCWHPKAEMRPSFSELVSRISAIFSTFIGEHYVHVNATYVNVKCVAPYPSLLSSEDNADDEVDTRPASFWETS

Compound	IC50 (c-Met [1])	IC50 (c-Met [2])
c1cc2c(cc1Cc1nnc3ccc(-c4ccc(CN5CCOCC5)s4)nn13)CCO2 [Example 42, 3-(2,3-Dihydro-benzofuran-5-ylmethyl)-6-(5-morpholin-4-ylmethyl-thiophen-2-yl)-[1,2,4]triazolo[4,3-b]pyridazine]	13 nM	406 nM
c1cnc2ccc(Cc3nnc4ccc(-n5ccnc5)nn34)cc2c1 [Example 43, 6-(6-Imidazol-1-yl-[1,2,4]triazolo[4,3-b]pyridazin-3-ylmethyl)-quinoline]	11 nM	140 nM
Brc1cn(-c2ccc3nnc(Cc4ccc5ncccc5c4)n3n2)cn1 [Example 44, 6-[6-(4-Bromo-imidazol-1-yl)-[1,2,4]triazolo[4,3-b]pyridazin-3-ylmethyl]-quinoline]	2 nM	143 nM
CN1CCN(C(=O)c2ccc(-c3ccc4nnc(Cc5ccc6ncccc6c5)n4n3)s2)CC1 [Example 47, (4-Methyl-piperazin-1-yl)-[5-(3-quinolin-6-ylmethyl-[1,2,4]triazolo[4,3-b]pyridazin-6-yl)-thiophen-yl]-methanone]	0.4 nM	1 nM
CCOC(=O)c1ccc(-c2ccc3nnc(Cc4ccc(O)cc4)n3n2)s1 [Example 48, 5-[3-(4-Hydroxy-benzyl)-[1,2,4]triazolo[4,3-b]pyridazin-6-yl]-thiophene-2-carboxylic acid ethyl ester]	2 nM	14 nM
CN(C)CCCNC(=O)c1ccc(-c2ccc3nnc(Cc4ccc(O)cc4)n3n2)s1 [Example 49, 5-[3-(4-Hydroxy-benzyl)-[1,2,4]triazolo[4,3-b]pyridazin-6-yl]-thiophene-2-carboxylic acid (3-dimethylamino-propyl)-amide]	2.1 nM	343 nM
CN1CCN(C(=O)c2ccc(-c3ccc4nnc(Cc5ccc6c(c5)CCO6)n4n3)s2)CC1 [Example 50, {5-[3-(2,3-Dihydro-benzofuran-5-ylmethyl)-[1,2,4]triazolo[4,3-b]pyridazin-6-yl]-thiophen-2-yl}-(4-methyl-piperazin-1-yl)-methanone]	2 nM	12 nM
COCCN(CCOC)C(=O)c1ccc(-c2ccc3nnc(Cc4ccc5c(c4)CCO5)n3n2)s1 [Example 51, 5-[3-(2,3-Dihydro-benzofuran-5-ylmethyl)-[1,2,4]triazolo[4,3-b]pyridazin-6-yl]-thiophene-2-carboxylic acid bis-(2-methoxy-ethyl)-amide]	0.2 nM	8 nM
O=C(NCCN1CCOCC1)c1ccc(-c2ccc3nnc(Cc4ccc5c(c4)CCO5)n3n2)s1 [Example 52, 5-[3-(2,3-Dihydro-benzofuran-5-ylmethyl)-[1,2,4]triazolo[4,3-b]pyridazin-6-yl]-thiophene-2-carboxylic acid (2-morpholin-4-yl-ethyl)-amide]	3 nM	40 nM
CC(C)CCNC(=O)c1ccc(-c2ccc3nnc(Cc4ccc5c(c4)CCO5)n3n2)s1 [Example 53, 5-[3-(2,3-Dihydro-benzofuran-5-ylmethyl)-[1,2,4]triazolo[4,3-b]pyridazin-6-yl]-thiophene-2-carboxylic acid (3-methyl-butyl)-amide]	4 nM	35 nM
CC(C)N1CCN(C(=O)c2ccc(-c3ccc4nnc(Cc5ccc6ncccc6c5)n4n3)s2)CC1 [Example 55, (4-Isopropyl-piperazin-1-yl)-[5-(3-quinolin-6-ylmethyl-[1,2,4]triazolo[4,3-b]pyridazin-6-yl)-thiophen-2-yl]-methanone]	1 nM	1 nM
CS(=O)(=O)N1CCN(C(=O)c2ccc(-c3ccc4nnc(Cc5ccc6ncccc6c5)n4n3)s2)CC1 [Example 56, (4-Methanesulfonyl-piperazin-1-yl)-[5-(3-quinolin-6-ylmethyl-[1,2,4]triazolo[4,3-b]pyridazin-6-yl)-thiophen-2-yl]-methanone]	0.9 nM	23 nM
COc1ccc(C(F)(F)c2nnc3ccc(-c4cccs4)nn23)cc1 [Example 58, 3-[Difluoro-(4-methoxy-phenyl)-methyl]-6-thiophen-2-yl-[1,2,4]triazolo[4,3-b]pyridazine]	95 nM	314 nM
FC(F)(c1ccc2ncccc2c1)c1nnc2ccc(-c3cccnc3)nn12 [Example 59, 6-[Difluoro-(6-pyridin-3-yl-[1,2,4]triazolo[4,3-b]pyridazin-3-yl)-methyl]-quinoline]	3 nM	8 nM

More lines, now with the values ahead:

IC50 (c-Met [1])	IC50 (c-Met [2])	Compound
20 nM	270 nM	Cn1cc(-c2ccc3nnc(Cc4ccc5c(c4)CCO5)n3n2)cn1 [Example 62, 3-(2,3-Dihydro-benzofuran-5-ylmethyl)-6-(1-methyl-1H-pyrazol-4-yl)-[1,2,4]triazolo[4,3-b]pyridazine]
17 nM	170 nM	c1cnc2ccc(Cc3nnc4ccc(-c5cncnc5)nn34)cc2c1 [Example 64, 6-(6-Pyrimidin-5-yl-[1,2,4]triazolo[4,3-b]pyridazin-3-ylmethyl)-quinoline]
0.3 nM	2 nM	c1cnc2ccc(Cc3nnc4ccc(-c5cnc6ccccc6c5)nn34)cc2c1 [Example 65, 6-(6-Quinolin-3-yl-[1,2,4]triazolo[4,3-b]pyridazin-3-ylmethyl)-quinoline]
0.9 nM	5 nM	FC(F)(c1ccc2ncccc2c1)c1nnc2ccc(-c3cnc4ccccc4c3)nn12 [Example 66, 6-[Difluoro-(6-quinolin-3-yl-[1,2,4]triazolo[4,3-b]pyridazin-3-yl)-methyl]-quinoline]
2 nM	30 nM	COc1ccc(Cn2cnc3ccc(Cc4nnc5ccc(-c6cccnc6)nn45)cc3c2=O)cc1 [Example 68, 3-(4-Methoxy-benzyl)-6-(6-pyridin-3-yl-[1,2,4]triazolo[4,3-b]pyridazin-3-ylmethyl)-3H quinazolin-4-one]
17 nM	> 1000 nM	O=c1[nH]cnc2ccc(Cc3nnc4ccc(-c5cccnc5)nn34)cc12 [Example 69, 6-(6-Pyridin-3-yl-[1,2,4]triazolo[4,3-b]pyridazin-3-ylmethyl)-3H-quinazolin-4-one]
25 nM	140 nM	Cn1cc(-c2ccc3nnc(Cc4ccc5ncncc5c4)n3n2)cn1 [Example 70, 6-[6-(1-Methyl-1H-pyrazol-4-yl)-[1,2,4]triazolo[4,3-b]pyridazin-3-ylmethyl]-quinazoline]
20 nM	99 nM	Cn1cc(-c2ccc3nnc(Cc4ccc5nccnc5c4)n3n2)cn1 [Example 71, 6-[6-(1-Methyl-1H-pyrazol-4-yl)-[1,2,4]triazolo[4,3-b]pyridazin-3-ylmethyl]-quinoxaline]
0.3 nM	0.2 nM	c1cnc2ccc(Cc3nnc4ccc(-c5cc6ccccc6s5)nn34)cc2c1 [Example 72, 6-(6-Benzo[b]thiophen-2-yl-[1,2,4]triazolo[4,3-b]pyridazin-3-ylmethyl)-quinoline]
0.1 nM	0.5 nM	[O-][n+]1cccc2cc(Cc3nnc4ccc(-c5cn[nH]c5)nn34)ccc21 [Example 73, 6-[6-(1H-Pyrazol-4-yl)-[1,2,4]triazolo[4,3-b]pyridazin-3-ylmethyl]-quinolin-1-ol]
0.8 nM	60 nM	OCCCn1cc(-c2ccc3nnc(Cc4ccc5ncccc5c4)n3n2)cn1 [Example 75, 3-[4(3-Quinolin-6-ylmethyl-[1,2,4]triazolo[4,3-b]pyridazin-6-yl)-pyrazol-1-yl]-propan-1-ol]
4 nM	180 nM	c1cnc2ccc(Cc3nnc4ccc(-c5cn[nH]c5)nn34)cc2c1 [Example 76, 6-[6-(1H-Pyrazol-4-yl)-[1,2,4]triazolo[4,3-b]pyridazin-3-ylmethyl]-quinoline]
